In general, IC50 refers to the concentration needed to halve the response being measured.

This note sets out measurements from patent publication US20230382916A1, “HETEROARYL HETEROCYCLIC COMPOUNDS AND USES THEREOF” (HUTCHISON MEDIPHARMA LIMITED, priority 2020, published 2023).

In data set [1] the target is BTK recombinant protein (Homo sapiens (Human), UniProt Q06187). The data set is described as follows: Determination of biochemical BTK (Z'-LYTE kinase assay). Conditions: 32 μM ATP. The text has this: BTK recombinant protein: Invitrogen, Cat #PV3363;
Sequence of BTK recombinant protein (Q06187 whole entry): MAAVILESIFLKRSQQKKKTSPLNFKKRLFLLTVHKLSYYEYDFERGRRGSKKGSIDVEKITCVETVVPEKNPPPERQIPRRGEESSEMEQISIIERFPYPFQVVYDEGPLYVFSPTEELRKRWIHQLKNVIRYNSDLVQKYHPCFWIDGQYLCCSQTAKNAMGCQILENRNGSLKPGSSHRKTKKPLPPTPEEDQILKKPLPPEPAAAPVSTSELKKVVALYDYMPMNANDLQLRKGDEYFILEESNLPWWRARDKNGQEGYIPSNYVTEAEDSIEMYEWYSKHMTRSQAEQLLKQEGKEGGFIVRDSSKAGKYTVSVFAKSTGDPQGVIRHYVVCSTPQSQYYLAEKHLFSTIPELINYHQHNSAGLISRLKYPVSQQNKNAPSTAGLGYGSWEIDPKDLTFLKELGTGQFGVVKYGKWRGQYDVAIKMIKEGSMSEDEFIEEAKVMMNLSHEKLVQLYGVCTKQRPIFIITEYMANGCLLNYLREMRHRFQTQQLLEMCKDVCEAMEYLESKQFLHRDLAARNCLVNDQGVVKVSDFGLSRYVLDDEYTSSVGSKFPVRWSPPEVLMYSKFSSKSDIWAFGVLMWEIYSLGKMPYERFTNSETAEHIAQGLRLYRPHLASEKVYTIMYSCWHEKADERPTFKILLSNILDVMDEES
Z′-LYTE® kinase test kit-tyrosine 1 peptide: Invitrogen, Cat #PV3190;
Z′-LYTE® biochemical assay employs a fluorescence resonance energy transfer (FRET)-based, coupled-enzyme format and is based on the differential sensitivity of phosphorylated and non-phosphorylated peptides to proteolytic cleavage. Both ends of the short peptide substrate are labeled with two fluorescent groups to form a FRET paired combination. In the primary reaction (the Kinase Reaction), the kinase transfers the γ-phosphate of ATP to a single […] residue on the short peptide substrate. In the secondary reaction (the development reaction), the non-phosphorylated short peptides were recognized and cleaved by a site-specific protease (the development reagent). Phosphorylated short peptides can resist such cleavage. Cleavage of short peptides can disrupt the donor (such as coumarin) and receptor fluorophores (fluorescein) on the short peptides, while the phosphorylated short peptides can maintain FRET. The calculation method of the ratio is as follows, and the ratio of the respective emission signals generated by the donor fluorophores emitted (after excitation at 400 nm) to the receptors is calculated. Emission signal ratio=emitted light by coumarin (445 nm)/emitted light by fluorescein (520 nm). If the FRET short peptide is phosphorylated (such as no kinase inhibitor), the emitted light ratio will remain in a lower level. If the FRET short peptide is non-phosphorylated (such as kinase inhibitor), the emitted light ratio will be in a higher level. In this way, the inhibitory effects of different compound inhibitors on BTK kinase activity would be distinguished.
The experiment was carried out according to the instructions of the Z′-LYTE® kinase test kit-tyrosine 1 peptide. Reagent preparation: 1.33× kinase buffer: 5× kinase buffer was diluted with water to 1.33× kinase buffer; an enzyme solution: the kinase was dissolved in 1.33× kinase buffer with the final working concentration being 3.32 nM; a short peptide solution: a short peptide stock solution (1 mM dissolved in DMSO) was dissolved in 1.33× kinase buffer with the final working concentration being 2 μM; Z′-LYTE Tyr01 phosphorylated short peptide solution, 0.6 μl of stock solution (1 mM dissolved in DMSO) was dissolved in 149.4 μl of 1.33× kinase buffer; an ATP solution: an ATP stock solution (10 mM aqueous solution) was dissolved in 1.33× kinase buffer with the final working concentration being 32 μM; a color-developing solution: color-developing solution B was dissolved in color-developing buffer with the final working concentration being 1× color-developing solution; 4× compound preparation: the compound was diluted in 3-fold gradient concentration to finally obtain 4% DMSO aqueous solution containing different concentrations of the compound, with the final working concentration being 3000, 1000, 333.33, 111.11, 37.04, 12.35, 4.12, 1.37 nM, 8 concentration points in total.
Specific steps of the experiment: In the experiment, there were three control groups, each with 8 replicate wells, which were C1 100% inhibition group (no ATP), C2 0% inhibition group (with ATP), and C3 100% phosphorylation group, respectively. 2.5 μl of serially diluted compound was added to each well of a 384-well plate, with double replicate wells, and 4% DMSO solution was added to wells C1, C2, and C3. After that, except for wells C3, 2.5 μl of BTK enzyme solution was added to each remaining well, which was left to stand at 4° C. for 30 minutes. After that, except for wells C3, 2.5 μl of short peptide solution was added to each well, and 5 μl of phosphorylated short peptide solution was added to each of wells C3. 2.5 μl of 1.33× kinase buffer was added to each of wells C1 and C3, and 2.5 μl of ATP solution was added to each of the remaining wells. The wells were centrifuged transiently, and the plate was shaken at 1000 rpm for 30 seconds to perform transient centrifuge. […]

Data set [2] is described as follows: Stability test in liver microsomes (mouse). It is filed as in vitro ADME. The note with it: mouse liver microsomes 0.5 mg/mL, 1 μM compound. The procedure: (§1) Both male CD-1 mouse pooled liver microsomes and male SD rat pooled liver microsomes were purchased from BioreclamationIVT Corporation, USA.
(§2) The test compound stock solution was diluted with an organic solvent (usually a mixture of acetonitrile, methanol and water with various ratios, depending on the solubility of the compound, if necessary, 1 N hydrochloric acid or 1 N sodium hydroxide would be added to facilitate solubilization) to the 0.1 mM (the final concentration of the compound in the reaction system was 1 μM) and the concentration percentage of the organic solvents in the incubation system no more than 1% (wherein the percentage of DMSO was required to be no more than 0.1%). An appropriate amount of 100 mM NADP, 500 mM G-6-P and 100 Unit/mL G-6-PDH were mixed and diluted with ultrapure water (the final system contains 1 mM NADP, 5 mM G-6-P and 1 Unit/mL G-6-PDH), pre-incubated in a 37° C. water bath for 10 minutes and then placed on ice for use as a NADPH regeneration solution. 20 mg/mL liver microsomes solution and 200 mM phosphate buffer were mixed, and diluted with ultrapure water to give a liver microsomes solution containing 2.5 mg/mL liver microsomes (the final concentration of the reaction system is 0.5 mg/mL) and 50 mM phosphate buffer. The diluted liver microsomes solution was mixed with 0.1 mM compound solution, a mixture of 100 mM EDTA, 300 mM MgCl2 solution, 200 mM phosphate buffer (the final system was 3 mM MgCl2, 1 mM EDTA and 50 mM phosphate buffer) and water in an appropriate volume was added. Finally, the NADPH regeneration solution was added, then the reaction solution was placed in a 37° C. water bath to start the reaction (the reaction time was 30 minutes), and the reaction was stopped by adding the ice-cold acetonitrile reaction stopping solution containing the internal standard. The 0-minute sample was not incubated in a 37° C. water bath, and its difference from the 30-minute sample further lies in that the ice-cold acetonitrile reaction stopping solution containing the internal standard was added first, and then the NADPH regeneration solution was added. The sample added with the reaction stopping internal standard solution was vortexed and mixed well, and then centrifuged at 4400 rpm for 10 minutes. The supernatant was taken and diluted ten times with 50% methanol for LC-MS/MS analysis.
(§3) LC-MS/MS was used to determine the concentration of the compound in the sample. The percentage of the remaining compound after 30 minutes of incubation comparing with that in the 0-minute sample was calculated using the peak area ratio of the compound to the internal standard as an indicator, to evaluate the metabolic stability of the compound.
(Microsomes from liver hold many membrane-bound enzymes, among them those of drug oxidation.)

A short description of data set [3]: Stability test in liver microsomes (rat). The note with it: rat liver microsomes 0.5 mg/mL, 1 μM compound. It is filed as in vitro ADME. On the procedure:
as §1, §2, §3

For data set [4], the system named is rat arthritis model induced by type II collagen. Put plainly: Rat arthritis model induced by type II collagen (CIA), paw volume. Format: in vivo. Conditions: for inhibition ratio of area under the curve (IRAUC) of paw swelling: Day 13 to Day 19. The procedure: An appropriate amount of bovine type II collagen (CII, Chondrex (Redmond, WA, USA), Cat #20021) was weighed and dissolved in 0.1 mole of acetic acid (SPGC Sinopharm Chemical Reagent Co., Ltd (Shanghai, P.R. China), Cat #: 10000218.), which was formulated into a solution with a concentration of 6 mg/mL, stirred at 4° C. overnight, and added with an equal volume of Freund's incomplete adjuvant (Sigma-Aldrich. (St. Louis, MO, USA), Cat #: SLBW0366.), fully emulsified to prepare an emulsion with a CII concentration of 3 mg/mL.
Female Lewis rats were purchased from Beijing Vital River Laboratory Animal Technology Co., Ltd. (certificate number 20200928Aazz0619000579, initial body weight of 110-130 grams), and 6 rats were randomly selected as a normal group; and all of the remaining rats were immunized. In the first immunization on day 0, the rats except those in the normal group were anesthetized with isoflurane (Hebei Yipin Pharmaceutical Co., Ltd., Lot: C002170601.), and then disinfected with 75% alcohol, and 0.2 mL of emulsion was injected intradermally at the base of the tail thereof. A second challenge was carried out on day 7, and 0.2 mL of emulsion was intradermally injected using the same method. Once the animals developed symptoms on day 10, the incidence conditions thereof were closely monitored.
After grouping, the normal group was not administered, and the rats in the other groups were administered with the control vehicle, 0.25 mg/kg and 4 mg/kg of the reference GDC-0853, and each dose of compound 1 orally once a day until the end of the experiment.
The paw volume was measured on day 10 after immunization, and the left and right hind paw volumes (V) were measured every day after the paw volume increase was detected.
The arthrosis paw volumes of the left and right hind limbs of each animal were measured, and the average paw volume (APV) was calculated according to the following formula:
Average paw volume APV=(Vleft+Vright)/2
The average arthrosis paw volume of each animal before administration was used as the baseline (or considered […] of inflammation). The averaged paw swelling (APS) of each animal is calculated according to the following formula, wherein, APVd1 is the average paw volume of the animal administered on day 1, and APVdt is the average paw volume of the animal administered on day t:
The averaged paw swelling APSdt=(APVdt−APVd1)
The area under the curve (AUC) of the average paw volume swelling is the area under the curve of the arthrosis score swelling calculated by the trapezoid method, and the calculation formula is:
AUCAPS=½×(APSd1+APSd2)×(d2−d1)+½×(APSd2+APSd3)×(d3−d2)+ . . . +½×(APSdn+APSd(n-1))×(dn−dn-1).
Inhibition ratio IRAUC%=(Mean AUCAPS in the model group−AUCAPS in the drug-treated group)/(Mean AUCAPS in the model group−Mean AUCAPS in the normal group)×100%.

For data set [5], the system named is anti-IgD antibody-induced B cell activation in mice whole blood. The data set is described as follows: In vivo efficacy of the inhibitory effect on BTK target: anti-IgD antibody-induced B cell activation in mice whole blood after oral dosing. Conditions: 20 mg/kg oral single dose, 16 h. Details: species or system mouse. The procedure:
Objects: B cells in mice whole blood were induced and activated by the anti-IgD antibody, and the inhibitory effect of the compound of the present invention on B cell activation in vivo was studied, so as to determine the inhibitory effect of the compound of the present invention on the BTK target in vivo.
Methods: C57BL/6 mice (female, 18-20 g, purchased from Shanghai Lingchang Biotechnology Co., Ltd.) were grouped according to Table 1.
The animals of each group were administered, then were placed in CO2 for anesthesia at designated time points, blood samples were taken from […] via retro-orbital bleeding, and heparin was used for anticoagulation; 90 μL of whole blood was taken from mice of each group, and added to a 96 well culture plate, and anti-mouse IgD antibody (BIO-RAD, Cat #MCA4693) was added to each well to a final concentration of […] (respectively for each drug-treated group and anti-IgD antibody-inducted vehicle group); in addition, 90 μL of whole blood of mice in the vehicle group was taken and added to the 96-well culture plate, and PBS (phosphate buffer, GIBCO, Cat #C20012500BT) was added to each well to a final concentration of 0.01 μg/L (namely, the vehicle control group); Each group was mixed well and incubated in a 37° C./5% CO2 incubator for 4 hours. In addition, the blood of mice in the drug-treated group was centrifuged to separate plasma for blood concentration analysis.
B cell activation ratio=percentage of CD69^+CD19^+ double positive B cells/percentage of CD19^+ single positive B cells
Inhibition ratio=(percentage of B cell activation ratio in anti-IgD antibody-induced vehicle group−percentage of B cell activation ratio in drug-treated group)/(percentage of B cell activation ratio in anti-IgD antibody−induced vehicle group-percentage of B cell activation ratio in vehicle control group)×100%
All data are represented by mean±standard error. For the comparison between each drug-treated group and the anti-IgD antibody-induced vehicle group, p value was calculated by Graphpad Prism using one-way ANOVA analysis of variance and Dunnett's test, and for the comparison between each drug-treated group, p value was calculated by using unpaired t test.

In the case of `C[C@H]1CN(C2COC2)C[C@H](C)N1c1ccc(Nc2cc(-c3ccnc(-n4ncn5c6c(cc5c4=O)CC(C)(C)C6)c3CO)cn(C)c2=O)nc1` [Compound 4, 2-(5-((5-((2S,6S)-2,6-dimethyl-4-(oxetan-3-yl)piperazin-1-yl)pyridin-2-yl)amino)-3′-(hydroxymethyl)-1-methyl-6-oxo-1,6-dihydro-[3,4′-bipyridin]-2′-yl)-7,7-dimethyl-7,8-dihydro-2H-cyclopenta[4,5]pyrrolo[1,2-d][1,2,4]triazin-1(6H)-one], in data set [1], the IC50 is 5 nM. Besides, the “MLM, percentage of the remaining compound after 30 minutes of incubation” value in data set [2] came out at 90.9%. The “RLM, percentage of the remaining compound after 30 minutes of incubation” value in data set [3] came to 97.4%.
The matching figures for `C[C@H]1CNC[C@H](C)N1c1ccc(Nc2cc(-c3ccnc(-n4ccn5c6c(cc5c4=O)CC(C)(C)C6)c3CO)cn(C)c2=O)nc1` [Compound 5, 2-(5-((5-((2S,6S)-2,6-dimethylpiperazin-1-yl)pyridin-2-yl)amino)-3′-(hydroxymethyl)-1-methyl-6-oxo-1,6-dihydro-[3,4′-bipyridin]-2′-yl)-7,7-dimethyl-7,8-dihydro-2H-cyclopenta[4,5]pyrrolo[1,2-a]pyrazin-1(6H)-one]: 8 nM, 67.5% and 95.4%.
Regarding `C[C@H]1CN(C2COC2)CCN1c1ccc(Nc2cc(-c3ccnc(N4CCn5c(cc6c5CC(C)(C)C6)C4=O)c3CO)cn(C)c2=O)nc1` [GDC-0853, fenebrutinib, reference compound], the “MLM, percentage of the remaining compound after 30 minutes of incubation” value in data set [2] was 76.3%. Further, in data set [4] (0.25 mg/kg oral QD), the “effect on paw volume compared with vehicle control group” value is “no improvement effect” and the “inhibition ratio of area under the curve (IRAUC) of paw swelling” value is on record as −6.4%. Moreover, in data set [4] (4 mg/kg oral QD), the “effect on paw volume compared with vehicle control group” value is listed as “significantly reduced” and the “inhibition ratio of area under the curve (IRAUC) of paw swelling” value turned out to be 144.7%. Also, the “Inhibition ratio (%) on B cell activation” value in data set [5] is given as 9%. In data set [5] (mean ± standard error), the “B cell activation ratio (the population of activated B cells in total B cells)” value was 29.3 ± 6.7. Also, the “RLM, percentage of the remaining compound after 30 minutes of incubation” value in data set [3] was determined as 81.0%.
